Experimental data reported in publication PMC11912270, “Synthesis and SAR Studies of Acyl-Thiourea Platinum(II) Complexes Yield Analogs with Dual-Stage Antiplasmodium Activity” (ACS Medicinal Chemistry Letters, 2025).
Values joined by “and” are separate entries in the source; they are usually repeats but may differ in a detail not shown here. Equal values may be shown once.

How the values were obtained:
[1] = test system: early-stage gametocytes (NF54-PfS16-GFP-Luc); assay: Luciferase reporter assay, early-stage gametocytes; type: cell-based, Plasmodium falciparum; details: for EG (% inhibition) 1 µM / EG (% inhibition) 5 µM: single biological repeat; for IC50: early (II/III) gametocytes, luciferase, 48 h, read-out: EG IC50
Experimental: (§1) All the complexes were tested for their early- and late-stage gametocyte activity in a dual-point assay (1 μM and 5 μM). […]
(§2) 1.5.In vitro activity against gametocyte stages
(§3) PfNF54 gametocytes were prepared and isolated according to the method reported by Reader […]
(§4) The in vitro gametocyte activity of the synthesized complexes was determined using a luciferase reporter line-based assay.
(§5) NF54-PfS16-GFP-Luc parasites were used for the stage-specific assessment of gametocytocidal activity. Early-stage gametocyte (stage I-III) experiments were performed on day 5 (representing >90% of early-stage and late-stage gametocyte (stages IV/V) experiments were performed on day 10. In each experiment, assays were set up with the use of 2-3% […]
(§6) Luciferase activity was determined in 30 µL parasite lysates by adding luciferin substrate (30 µL) (Promega Luciferase Assay System) at room temperature. […]

[2] = test system: Chinese hamster ovary (CHO) cell line; assay: MTT cytotoxicity assay; type: cell-based; details: cytotoxicity, MTT, 48 h; N, n = 1, 3; read-out: CHO IC50
Experimental: 1.6.In vitro cytotoxicity assay
A 3-(4,5-dimethylthiazol-2-yl)-2,5-diphenyltetrazoliumbromide (MTT) assay was used to screen the metal complexes against the mammalian Chinese hamster ovarian (CHO) cell line.
A stock solution of each compound (2 mg/mL) in DMSO was prepared and kept at -20 °C until needed. Emetine was used as a reference drug. A starting concentration of 100 µg/mL was used, and serially diluted ten-fold using a complete medium to give the lowest concentration of 0.001 µg/mL (6 dilutions). The plates containing the CHO cells under drug pressure were […]
Plates containing the drug and cell suspension were developed by adding 25 μL of sterile MTT (Thermo Fisher Scientific) (25 µL) to each well, followed by 4 h […]
of incubation at room temperature in the dark. The plates were then centrifuged, and the supernatant was removed via aspiration. Sample absorbance was read at a wavelength of 540 […]
analysis via GraphPad Prism v.4.0 software. The IC50 values were determined for each compound were determined from the dose-response curves. […]

ABS parasites = assay: Dual point activity against ABS parasites; type: cell-based, Plasmodium falciparum; details: single biological repeat
Source text: Table S2: Dual point activity of platinum(II) complexes against ABS parasites, early- and late-
stage gametocytes. Values are averaged from technical triplicates performed for a single

PfNF54 ABS parasites = assay: SYBR Green I-based proliferative assay, PfNF54 ABS parasites; type: cell-based, Plasmodium falciparum; details: for IC50: ABS, SYBR Green I, 96 h, mean ± S.E., N = 3 (no S.E.: N = 1)
Experimental: (§7) The parasites were incubated under drug […]
(§8) incubation, parasite survival was determined by adding equal volumes of parasite suspension (100 µL) and SYBR Green I lysis buffer (0.2% µL/mL of 10 000x SYBR Green I, 20 mM Tris-HCl, pH 7.5, 5 mM EDTA, 0.008% saponin (w/v) and 0.08% Triton x-100). This was incubated for 1 hour at room temperature in the dark. […]

[3] = test system: late-stage gametocytes (NF54-PfS16-GFP-Luc); assay: Luciferase reporter assay, late-stage gametocytes; type: cell-based, Plasmodium falciparum; details: for LG (% inhibition) 1 µM / LG (% inhibition) 5 µM: single biological repeat; for IC50: late (IV/V) gametocytes, luciferase, 48 h, read-out: LG IC50
Experimental: as §1, §2, §3, §4, §5, §6

PfK1 ABS parasites = type: cell-based, Plasmodium falciparum; details: for IC50: ABS, SYBR Green I, 96 h, mean ± S.E.; for RI (resistance index): RI = PfK1 IC50/PfNF54 IC50
Experimental: as §7, §8

Cyclic voltammetry = type: physicochemical; details: 0.1 V/s; for Epa1: anodic peak potential; for Epc1: cathodic peak potential
Source text: It is known that Fe^2+/Fe^3+ redox chemistry has an important role in the bioactivity of ferrocene derivatives.[33] The production of reactive oxygen species (ROS) is one of the modes of action of ferroquine and other ferrocene derivatives[34] and is linked to the correlation between their bioactivity and electrochemical behavior. We determined whether a similar correlation could be made for the mixed-ligand platinum(II) complexes reported herein given that metal centers have the potential to be oxidized and reduced. The electrochemistry of the complexes was studied using cyclic voltammetry (CV), which uses a triangular potential waveform. The CV experiments were performed in either dry MeOH or DMF containing tetrabutylammonium chloride (TBACl) as the supporting electrolyte. The working electrode was glassy carbon with a platinum wire as the counter electrode and Ag/AgCl as the reference. The anodic (Epa) and cathodic (Epc) peak potentials at 0.1 V/s and half-wave potentials (E1/2) were measured (Table 3). All of the tested complexes undergo reversible one-electron Pt^2+/Pt^+ reductions (Figures S38–S46). Complexes C2, C4, and C8 undergo a second nonreversible reduction (Epc2), which is most likely ligand-based and linked to reductions of the substituent on the bpy. Looking at SAR2, the more electron-withdrawing the substituent, the […] the E1/2 (V vs Fe/Fe^+) value was. This trend was expected, as a more electron-withdrawing substituent reduces the electron density around the metal center, making it easier for the metal to be reduced from Pt^2+ to Pt^+. […] This is also the case for other bpy-containing platinum(II) complexes that only undergo reductions.[35],[36] […]
For the cyclic voltammetry experiments a solution of the test compound (1 x 10-3) in DMSO (3 mL) is added to the electrolyte solution (0.1 M tetrabutylammonium chloride (TBACl) in DMSO). The electrochemical measurements were obtained using a Basi Epsilon Eclipse Electrochemical Analyzer Potentiostat and the CV graphs were generated using Excel. The working electrode was glassy carbon (GC) with platinum wire as the counter electrode (CE) and Ag/AgCl as the reference. […]

[4] = Kinetic solubility by HPLC (pH 6.5); details: pH 6.5; for Aqueous solubility pH 6.5: kinetic, HPLC
Experimental: 1.7. Kinetic solubility by HPLC (pH 6.5)
Solubility was measured at pH 6.5 using an adapted miniaturized shake-flask method, in 96-well plate format.4,5 Briefly, 4 µL of a 10 mM stock in DMSO was added to a 96-well plate and evaporated using a GeneVac system. Phosphate buffer pH 6.5 was then added to the wells […]
At the end of this incubation, the […]
in the analysis plate. Analysis was then performed by HPLC-DAD and the solubility of each sample was determined from the corresponding calibration curve. […]

Row | SMILES | EG (% inhibition) 1 µM [1] | EG (% inhibition) 5 µM [1] | IC50 [1] | IC50 [2] | ABS (% inhibition) 1 µM (ABS parasites) | ABS (% inhibition) 5 µM (ABS parasites) | IC50 (PfNF54 ABS parasites) | fold decrease in PfNF54 activity compared to C2 (PfNF54 ABS parasites; vs 4,4'-dimethyl complex C2) | LG (% inhibition) 1 µM [3] | LG (% inhibition) 5 µM [3] | IC50 [3] | IC50 (PfK1 ABS parasites) | RI (resistance index) (PfK1 ABS parasites) | Epa1 (Cyclic voltammetry) | Epc1 (Cyclic voltammetry) | fold improvement in PfNF54 activity compared to C2 (PfNF54 ABS parasites; vs 4,4'-dimethyl complex C2) | Aqueous solubility pH 6.5 [4] | solubility at 24 h ([4]; phosphate buffer)
1 | Cc1cccc(-c2cccc(C)n2)n1.OCCN(CCO)C(=S)N=C([O][Pt+])c1ccccc1.[Cl-] [C15] | 2.8 % inhibition | 43.9 % inhibition | 9.51 µM | 5 µM | 0.0 % inhibition | 89.6 % inhibition | 2.91 µM | 2 fold | 54.8 % inhibition | 84.0 % inhibition | 1.41 µM | 2.76 µM | 0.9 | – | – | – | – | –
2 | CC(C)(C)c1ccnc(-c2cc(C(C)(C)C)ccn2)c1.OCCN(CCO)C(=S)N=C([O][Pt+])c1ccc(Cl)cc1.[Cl-] [C13] | – | – | – | – | – | – | – | – | – | – | – | – | – | –1.233 V | –1.119 V | – | – | –
3 | Cc1ccc(-c2ccc(C)cn2)nc1.OCCN(CCO)C(=S)N=C([O][Pt+])c1ccccc1.[Cl-] [C14] | 0.0 % inhibition | 0.0 % inhibition | – | > 50 µM | – | – | 0.241 ± 0.04 µM | – | 39.4 % inhibition | 56.6 % inhibition | – | 0.886 ± 0.059 µM | 3.7 | – | – | 5 fold and 6 fold | – | –
4 | CC(C)(C)c1cc[n+]2c(c1)-c1cc(C(C)(C)C)cc[n+]1[Pt-2]21[O+]=C(c2ccccc2)N=C(N(CCO)CCO)[S]1.[Cl-] [C1] | – | – | – | – | – | – | – | – | – | – | – | – | – | –1.233 V | –1.127 V | – | 95 μM | –
5 | COc1ccc(C2=[O+][Pt-2]3([S]C(N(CCO)CCO)=N2)[n+]2ccc(C(C)(C)C)cc2-c2cc(C(C)(C)C)cc[n+]23)cc1.[Cl-] [C12] | – | – | – | – | – | – | – | – | – | – | – | – | – | –1.247 V | –1.133 V | – | – | –
6 | OCCN(CCO)C1=NC(c2ccccc2)=[O+][Pt-2]2([S]1)[n+]1ccc(O)cc1-c1cc(O)cc[n+]12.[Cl-] [C5] | 0.0 % inhibition | 0.0 % inhibition | > 20 µM | > 50 µM | 0.0 % inhibition | 11.0 % inhibition | > 5 µM | – | 0.0 % inhibition | 0.5 % inhibition | > 20 µM | – | – | – | – | – | – | –
7 | OCCN(CCO)C1=NC(c2ccccc2)=[O+][Pt-2]2([S]1)[n+]1ccc(Cl)cc1-c1cc(Cl)cc[n+]12.[Cl-] [C7] | 2.2 % inhibition | 4.1 % inhibition | > 20 µM | > 50 µM | 2.7 % inhibition | 57.3 % inhibition | > 5 µM | – | 0.0 % inhibition | 0.4 % inhibition | > 20 µM | – | – | – | – | – | – | –
8 | COC(=O)c1cc[n+]2c(c1)-c1cc(C(=O)OC)cc[n+]1[Pt-2]21[O+]=C(c2ccccc2)N=C(N(CCO)CCO)[S]1.[Cl-] [C10] | 3.7 % inhibition | 4.2 % inhibition | > 20 µM | > 50 µM | 7.11 % inhibition | 17.3 % inhibition | > 5 µM | – | 0.6 % inhibition | 6.1 % inhibition | > 20 µM | – | – | – | – | – | <5 μM | –
9 | CNC(=O)c1cc[n+]2c(c1)-c1cc(C(=O)NC)cc[n+]1[Pt-2]21[O+]=C(c2ccccc2)N=C(N(CCO)CCO)[S]1.[Cl-] [C9] | 0.0 % inhibition | 4.5 % inhibition | > 20 µM | > 50 µM | 0.0 % inhibition | 24.5 % inhibition | > 5 µM | – | 0.0 % inhibition | 2.4 % inhibition | > 20 µM | – | – | – | – | – | – | –
10 | COC(=O)[C@H]1[C@H]2C[C@@H]3c4[nH]c5cc(OC)ccc5c4CCN3C[C@H]2C[C@@H](OC(=O)c2cc(OC)c(OC)c(OC)c2)[C@@H]1OC [Reserpine, reference compound] | – | – | – | – | – | – | – | – | – | – | – | – | – | – | – | – | – | < 5 µM
11 | Cc1ccc(C2=[O+][Pt-2]3([S]C(N(CCO)CCO)=N2)[n+]2ccc(C(C)(C)C)cc2-c2cc(C(C)(C)C)cc[n+]23)cc1.[Cl-] [C11] | – | – | – | – | – | – | – | – | – | – | – | – | – | –1.239 V | –1.128 V | – | – | –
